# How the values were obtained:
# Assay type in all cases: cell-based
# Proteus mirabilis = experiment: MIC against Gram-negative bacteria: Proteus mirabilis
# Summary of the method: (§1)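 Bacteria grown in LB at 37° C with shaking to McFarland 0.5, pelleted and resuspended in fresh LB, then seeded at 5×10^5 CFU/mL per well. Purified recombinant human EGF domain proteins were two-fold serially diluted in triplicate and plates shaken at 37° C, 175 rpm. MIC is the lowest protein concentration with no bacterial growth.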
# Citrobacter diversus = experiment: MIC against Gram-negative bacteria: Citrobacter diversus
# Summary of the method: as §1
# E. coli BL21 = experiment: MIC against Gram-negative bacteria: E. coli BL21
# Summary of the method: as §1
# Moraxella catarrhalis = experiment: MIC against Gram-negative bacteria: Moraxella catarrhalis
# Summary of the method: as §1
# Pseudomonas aeruginosa = experiment: MIC against Gram-negative bacteria: Pseudomonas aeruginosa
# Summary of the method: as §1
# E. coli DH5α = experiment: Antibacterial activity: MIC and growth curve against E. coli DH5α in 96-well plate; conditions: minimal inhibitory concentration against E. coli DH5α; 96-well plate, 5×10^5 CFU/mL, 37° C., judged after 8 h
# Summary of the method: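 MIC taken as lowest protein level with no bacterial growth, tracked by A600 every 30 min during 37 °C, 175 rpm culture. Two-fold protein series 50-12.5 μg/mL final, triplicate wells, against 5×10^5 CFU/mL of LB-washed mid-log cells.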
# Proteus vulgaris = experiment: MIC against Gram-negative bacteria: Proteus vulgaris
# Summary of the method: as §1
# Serratia marcescens = experiment: MIC against Gram-negative bacteria: Serratia marcescens
# Summary of the method: as §1
# Enterobacter cloacae = experiment: MIC against Gram-negative bacteria: Enterobacter cloacae
# Summary of the method: as §1
# Aeromonas hydrophila = experiment: MIC against Gram-negative bacteria: Aeromonas hydrophila
# Summary of the method: as §1
# Klebsiella pneumonia = experiment: MIC against Gram-negative bacteria: Klebsiella pneumonia
# Summary of the method: as §1
# [1] = 96-well plate, 5×10^5 CFU/mL, 37° C., 10 h
# [2] = 10 h cultivation at 37° C., 5×10^5 CFU/mL, two-fold serial dilution
# [3] = P. mirabilis, 10 h cultivation at 37° C., 5×10^5 CFU/mL
# [4] = C. diversus, 10 h cultivation at 37° C., 5×10^5 CFU/mL
# [5] = E. coli BL21, 10 h cultivation at 37° C., 5×10^5 CFU/mL
# [6] = M. catarrhalis, 10 h cultivation at 37° C., 5×10^5 CFU/mL
# [7] = P. aeruginosa, 10 h cultivation at 37° C., 5×10^5 CFU/mL
# [8] = P. vulgaris, 10 h cultivation at 37° C., 5×10^5 CFU/mL
# [9] = S. marcescens, 10 h cultivation at 37° C., 5×10^5 CFU/mL
# [10] = E. cloacae, 10 h cultivation at 37° C., 5×10^5 CFU/mL
# [11] = A. hydrophila, 10 h cultivation at 37° C., 5×10^5 CFU/mL
# [12] = K. pneumonia, 10 h cultivation at 37° C., 5×10^5 CFU/mL
substance,measurement,setting,value
PRT525 (CNCNRDGTEPGVCDPGTGACLCKENVEGTECNVCREGSFHLDPANLKGCTS; listed as Homo sapiens),MIC against P. mirabilis,Proteus mirabilis; [1],25 µg/mL
same,MIC against C. diversus,Citrobacter diversus; [1],25 µg/mL
same,MIC against E. coli BL21,E. coli BL21; [1],12.5 µg/mL
same,MIC against M. catarrhalis,Moraxella catarrhalis; [1],50 µg/mL
same,MIC against P. aeruginosa,Pseudomonas aeruginosa; [1],25 µg/mL
same,MIC,E. coli DH5α,25 µg/mL
same,MIC against P. vulgaris,Proteus vulgaris; [1],12.5 µg/mL
same,MIC against S. marcescens,Serratia marcescens; [1],25 µg/mL
same,MIC against E. cloacae,Enterobacter cloacae; [1],25 µg/mL
same,MIC against A. hydrophila,Aeromonas hydrophila; [1],12.5 µg/mL
same,MIC against K. pneumonia,Klebsiella pneumonia; [1],50 µg/mL
PRT1101 (MKDPCFSNPCQGSATCVNTPGERSFLCKCPPGYSGTICE; listed as Homo sapiens),MIC P. mirabilis,Proteus mirabilis; [2],50 µg/mL
same,MIC C. diversus,Citrobacter diversus; [2],12.5 µg/mL
same,MIC E. coli BL21,E. coli BL21; [2],50 µg/mL
same,MIC M. catarrhalis,Moraxella catarrhalis; [2],25 µg/mL
same,MIC P. aeruginosa,Pseudomonas aeruginosa; [2],25 µg/mL
same,MIC,E. coli DH5α,25 µg/mL
same,MIC P. vulgaris,Proteus vulgaris; [2],25 µg/mL
same,MIC S. marcescens,Serratia marcescens; [2],12.5 µg/mL
same,MIC E. cloacae,Enterobacter cloacae; [2],25 µg/mL
same,MIC A. hydrophila,Aeromonas hydrophila; [2],50 µg/mL
same,MIC K. pneumonia,Klebsiella pneumonia; [2],12.5 µg/mL
PRT771 (VQDLCSKTTCKNDGVCTVRDGKAECRCQSGEDWWYMGERCE; listed as Homo sapiens),MIC (μg/mL) P. mirabilis,Proteus mirabilis; [3],50 µg/mL
same,MIC (μg/mL) C. diversus,Citrobacter diversus; [4],50 µg/mL
same,MIC (μg/mL) E. coli BL21,E. coli BL21; [5],12.5 µg/mL
same,MIC (μg/mL) M. catarrhalis,Moraxella catarrhalis; [6],12.5 µg/mL
same,MIC (μg/mL) P. aeruginosa,Pseudomonas aeruginosa; [7],50 µg/mL
same,MIC,E. coli DH5α,25 µg/mL
same,MIC (μg/mL) P. vulgaris,Proteus vulgaris; [8],12.5 µg/mL
same,MIC (μg/mL) S. marcescens,Serratia marcescens; [9],50 µg/mL
same,MIC (μg/mL) E. cloacae,Enterobacter cloacae; [10],50 µg/mL
same,MIC (μg/mL) A. hydrophila,Aeromonas hydrophila; [11],12.5 µg/mL
same,MIC (μg/mL) K. pneumonia,Klebsiella pneumonia; [12],12.5 µg/mL
PRT129 (CSTYGHLCRNGGRCREKRRGVTCDCAFSAYDGPFC; listed as Homo sapiens),MIC (μg/mL) P. mirabilis,"Proteus mirabilis; Proteus mirabilis, 96-well plate, 5×10^5 CFU/mL, 37° C., 10 h",25 µg/mL
same,MIC (μg/mL) C. diversus,"Citrobacter diversus; Citrobacter diversus, 96-well plate, 5×10^5 CFU/mL, 37° C., 10 h",12.5 µg/mL
same,MIC (μg/mL) E. coli BL21,"E. coli BL21; E. coli BL21, 96-well plate, 5×10^5 CFU/mL, 37° C., 10 h",12.5 µg/mL
same,MIC (μg/mL) M. catarrhalis,"Moraxella catarrhalis; Moraxella catarrhalis, 96-well plate, 5×10^5 CFU/mL, 37° C., 10 h",25 µg/mL
same,MIC (μg/mL) P. aeruginosa,"Pseudomonas aeruginosa; Pseudomonas aeruginosa, 96-well plate, 5×10^5 CFU/mL, 37° C., 10 h",50 µg/mL
same,MIC,E. coli DH5α,50 µg/mL
same,MIC (μg/mL) P. vulgaris,"Proteus vulgaris; Proteus vulgaris, 96-well plate, 5×10^5 CFU/mL, 37° C., 10 h",12.5 µg/mL
same,MIC (μg/mL) S. marcescens,"Serratia marcescens; Serratia marcescens, 96-well plate, 5×10^5 CFU/mL, 37° C., 10 h",12.5 µg/mL
same,MIC (μg/mL) E. cloacae,"Enterobacter cloacae; Enterobacter cloacae, 96-well plate, 5×10^5 CFU/mL, 37° C., 10 h",50 µg/mL
same,MIC (μg/mL) A. hydrophila,"Aeromonas hydrophila; Aeromonas hydrophila, 96-well plate, 5×10^5 CFU/mL, 37° C., 10 h",25 µg/mL
same,MIC (μg/mL) K. pneumonia,"Klebsiella pneumonia; Klebsiella pneumonia, 96-well plate, 5×10^5 CFU/mL, 37° C., 10 h",12.5 µg/mL
PRT1041 (VPLCAQECVHGRCVAPNQCQCVPGWRGDDCS; listed as Homo sapiens),MIC,"Proteus mirabilis; P. mirabilis, 10 h cultivation at 37° C.",25 µg/mL
same,MIC,"Citrobacter diversus; C. diversus, 10 h cultivation at 37° C.",12.5 µg/mL
same,MIC,"E. coli BL21; E. coli BL21, 10 h cultivation at 37° C.",25 µg/mL
same,MIC,"Moraxella catarrhalis; M. catarrhalis, 10 h cultivation at 37° C.",50 µg/mL
same,MIC,"Pseudomonas aeruginosa; P. aeruginosa, 10 h cultivation at 37° C.",50 µg/mL
same,MIC,E. coli DH5α,12.5 µg/mL
same,MIC,"Proteus vulgaris; P. vulgaris, 10 h cultivation at 37° C.",50 µg/mL
same,MIC,"Serratia marcescens; S. marcescens, 10 h cultivation at 37° C.",25 µg/mL
same,MIC,"Enterobacter cloacae; E. cloacae, 10 h cultivation at 37° C.",50 µg/mL
same,MIC,"Aeromonas hydrophila; A. hydrophila, 10 h cultivation at 37° C.",50 µg/mL
same,MIC,"Klebsiella pneumonia; K. pneumonia, 10 h cultivation at 37° C.",25 µg/mL
PRT875 (GGSPCEAGEEGEGGVCLNGGVCSVVDDQAVCDCSRTGFRGKDCS; listed as Homo sapiens),MIC (μg/mL) P. mirabilis,Proteus mirabilis; [3],50 µg/mL
same,MIC (μg/mL) C. diversus,Citrobacter diversus; [4],12.5 µg/mL
same,MIC (μg/mL) E. coli BL21,E. coli BL21; [5],12.5 µg/mL
same,MIC (μg/mL) M. catarrhalis,Moraxella catarrhalis; [6],25 µg/mL
same,MIC (μg/mL) P. aeruginosa,Pseudomonas aeruginosa; [7],25 µg/mL
same,MIC,E. coli DH5α,25 µg/mL
same,MIC (μg/mL) P. vulgaris,Proteus vulgaris; [8],12.5 µg/mL
same,MIC (μg/mL) S. marcescens,Serratia marcescens; [9],12.5 µg/mL
same,MIC (μg/mL) E. cloacae,Enterobacter cloacae; [10],12.5 µg/mL
same,MIC (μg/mL) A. hydrophila,Aeromonas hydrophila; [11],50 µg/mL
same,MIC (μg/mL) K. pneumonia,Klebsiella pneumonia; [12],50 µg/mL
PRT601 (CDCDIGGAYSNVCSPKNGQCECRPHVTGRSCSEPAPGYFFAPLNFYL; listed as Homo sapiens),MIC P. mirabilis,Proteus mirabilis; [1],100 µg/mL
same,MIC C. diversus,Citrobacter diversus; [1],12.5 µg/mL
same,MIC E. coli BL21,E. coli BL21; [1],25 µg/mL
same,MIC M. catarrhalis,Moraxella catarrhalis; [1],50 µg/mL
same,MIC P. aeruginosa,Pseudomonas aeruginosa; [1],12.5 µg/mL
same,MIC,E. coli DH5α,50 µg/mL
same,MIC P. vulgaris,Proteus vulgaris; [1],50 µg/mL
same,MIC S. marcescens,Serratia marcescens; [1],12.5 µg/mL
same,MIC E. cloacae,Enterobacter cloacae; [1],50 µg/mL
same,MIC A. hydrophila,Aeromonas hydrophila; [1],25 µg/mL
same,MIC K. pneumonia,Klebsiella pneumonia; [1],25 µg/mL

# Reference: US9833497B2, “Human originated EGF domain proteins and use of the same” (CHENGDU SOURCEBIO LIMITED-LIABILITY COMPANY, priority 2013, dated 2017)
